Measurements as given in PubChem BioAssay AID2060351 (Molecular Pharmacology Branch, DTP, NCI, 2025).
pIC50: −log10 of the molar value.

System: 521955-158-R7-J2-PDC spheroids, viability % test/control
Assay: Anticancer human tumor 521955-158-R7-J2-PDC patient-derived pancreatic carcinoma cell line growth inhibition [TAK]
Settings: spheroids with HUVEC and MSC; for viability, T/C: stronger effect = lower value; active = viability on the fitted dose curve at most 10% of control; inactive = the rest
Excerpt: Combinatorial screen of targeted agents with TAK-243 and ipatasertib in multi-cell type tumor spheroids
A high-throughput screen of multi-cell type tumor spheroids was designed to identify active combinations of targeted small molecules and TAK-243 or ipatasertib. Complex spheroids include a stromal component modeled by human endothelial cells (HUVEC) and fibroblasts modeled by human mesenchymal stem cells (MSCs). The concentration ranges selected for each drug and investigational agent were based upon clinically achievable concentrations if the clinical Cmax of the agent was known.
Compounds. The drugs and investigational agents: TAK-243 (785004), ipatasertib (767898), everolimus (733504), selumetinib (741078), bortezomib (756655), trametinib (758246), ixazomib (758254), vemurafenib (761431), dabrafenib (764134), sapanisertib (764658), alpelisib (765974), and copanlisib (816437), were obtained from the National Cancer Institute (NCI) Developmental Therapeutics Program Chemical Repository. The FDA-approved anticancer drug set is available from the NCI Developmental Therapeutics Program. […] The stock solutions were prepared in dimethyl sulfoxide (DMSO, Sigma-Aldrich, St. Louis, MO, cat. D2650) at 800-fold the tested concentration and stored at -70 degrees C prior to their use. All drugs and investigational agents were tested over a range starting from a high concentration at or near the clinical Cmax and decreasing in half-log increments. If the clinical Cmax for an agent had not been determined, the highest concentration tested was 10 microM.
NCI60 Cell Culture. NCI60 cell lines were obtained from the NCI Developmental Therapeutics Program Tumor Repository. For each lot of cells, the Repository performed Applied Biosystems AmpFLSTR Identifiler testing with PCR amplification to confirm consistency with the published Identifier STR profile for each cell line. Cells were kept in continuous culture for no more than 20 passages. The optimal seeding densities for each of the cell lines at each time point assessed were determined prior to performing the concentration response studies. Briefly, the NCI60 human tumor lines were grown as monolayers in RPMI 1640 medium supplemented with 10% FBS and 2 mmol/L L-glutamine.
An additional 2 lines were from the NCI60 cell line panel including melanomas, MALME-3M and SK-MEL-2. Pooled donor human umbilical vein endothelial cells (HUVEC, Lonza, cat. CC-2519) and human mesenchymal stem cells (hMSC, Lonza, cat. PT-2501) were purchased from Lonza (Walkersville, MD).
PDMR cell lines were grown in complete medium (DC medium): Dulbecco's modified Eagle's medium (DMEM)/F12 supplemented with 5% fetal bovine serum (FBS), 2 mM L-glutamine, 100 U/mL penicillin and 100 µg/ml streptomycin, 0.4 µg/ml hydrocortisone, 10 ng/ml epidermal growth factor (EGF) recombinant human protein, 24 µg/mL adenine, and 0.1 mg/mL primocin. During culture from frozen stock vials, PDMR cells were cultured in the same medium containing 10 µM Y-27632 (see Table 3). The PDCs were cultured in complete DMEM/F12 media without 10 microM Y-27632 dihydrochloride for at least two passages prior to the screen. The pooled donor HUVEC and hMSC were cultured in endothelial cell growth medium 2 (PromoCell, Heidelberg, Germany, cat. C-22011) and mesenchymal stem cell growth medium 2 (PromoCell, cat. C-28009), respectively. For all experiments, HUVEC and hMSC were used at passages </=5.
For the pre-screen, cell seeding densities were determined from a titration spanning the range from 5,000 to 313 cells per well. The mct-spheroids including 60% malignant cells, 25% HUVEC and 15% MSC dispensed as a mixture into U-bottom Ultra-Low Attachment 384-well plates (Corning, NY)
High-throughput Drug Combination Screening.
Prior to their inoculation into 384-well plates, malignant cells, HUVEC, and hMSC were removed from T flasks using TrypLE express (Thermo Fisher Scientific, cat. 12605036) and harvested by centrifugation for 5 min at 233 x g. […]

[1] = curve of first compound, second compound 0.3 µM
[2] = curve of first compound, second compound 0.949 µM
[3] = curve of first compound, second compound 3 µM
[4] = curve of first compound, second compound 9.49 µM
[5] = curve of first compound, second compound 30 µM
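Note: spheroids exposed to compound for 7 days before readout.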

COC1CC2CCC(C)C(O)(O2)C(=O)C(=O)N2CCCCC2C(=O)OC(C(C)CC2CCC(OCCO)C(OC)C2)CC(=O)C(C)C=C(C)C(O)C(OC)C(=O)C(C)CC(C)C=CC=CC=C1C (configuration not stated) + CC(C)NCC(C(=O)N1CCN(c2ncnc3c2C(C)CC3O)CC1)c1ccc(Cl)cc1
inactive: viability, T/C (second compound 0.3 µM, first compound 0.000316 µM) 103% | viability, T/C (second compound 0.3 µM, first compound 0.001 µM) 72.1% | viability, T/C (second compound 0.3 µM, first compound 0.00316 µM) 71.6% | viability, T/C (second compound 0.3 µM, first compound 0.01 µM) 102% | viability, T/C (second compound 0.3 µM, first compound 0.0316 µM) 110% | viability, T/C (second compound 0.3 µM, first compound 0.1 µM) 115% | viability, T/C (second compound 0.949 µM, first compound 0.000316 µM) 81.6% | viability, T/C (second compound 0.949 µM, first compound 0.001 µM) 73.5% | viability, T/C (second compound 0.949 µM, first compound 0.00316 µM) 100% | viability, T/C (second compound 0.949 µM, first compound 0.01 µM) 91% | viability, T/C (second compound 0.949 µM, first compound 0.0316 µM) 111% | viability, T/C (second compound 0.949 µM, first compound 0.1 µM) 85.9% | viability, T/C (second compound 3 µM, first compound 0.000316 µM) 84.7% | viability, T/C (second compound 3 µM, first compound 0.001 µM) 89.1% | viability, T/C (second compound 3 µM, first compound 0.00316 µM) 74.7% | viability, T/C (second compound 3 µM, first compound 0.01 µM) 89.5% | viability, T/C (second compound 3 µM, first compound 0.0316 µM) 104% | viability, T/C (second compound 3 µM, first compound 0.1 µM) 93.7% | viability, T/C (second compound 9.49 µM, first compound 0.000316 µM) 86.2% | viability, T/C (second compound 9.49 µM, first compound 0.001 µM) 86.3% | viability, T/C (second compound 9.49 µM, first compound 0.00316 µM) 82.2% | viability, T/C (second compound 9.49 µM, first compound 0.01 µM) 85.8% | viability, T/C (second compound 9.49 µM, first compound 0.0316 µM) 106% | viability, T/C (second compound 9.49 µM, first compound 0.1 µM) 105% | viability, T/C (second compound 30 µM, first compound 0.000316 µM) 90.3% | viability, T/C (second compound 30 µM, first compound 0.001 µM) 108% | viability, T/C (second compound 30 µM, first compound 0.00316 µM) 98.2% | viability, T/C (second compound 30 µM, first compound 0.01 µM) 106% | viability, T/C (second compound 30 µM, first compound 0.0316 µM) 104% | viability, T/C (second compound 30 µM, first compound 0.1 µM) 116%
< 7.00: pIC50 [1] | pIC50 [2] | pIC50 [3] | pIC50 [4] | pIC50 [5]

CC(C)NCC(C(=O)N1CCN(c2ncnc3c2C(C)CC3O)CC1)c1ccc(Cl)cc1 (configuration not stated)
inactive: viability, T/C (compound 30 µM) 84.2% [middle of 10 runs]
< 4.52: pIC50 (compound alone, run of 02/20/2020)

CCCS(=O)(=O)Nc1ccc(F)c(C(=O)c2c[nH]c3ncc(-c4ccc(Cl)cc4)cc23)c1F + CC(C)NCC(C(=O)N1CCN(c2ncnc3c2C(C)CC3O)CC1)c1ccc(Cl)cc1
5.19: pIC50 [5]
4.66: pIC50 [4]
< 4.00: pIC50 [1] | pIC50 [2] | pIC50 [3]
inactive: viability, T/C (second compound 0.3 µM, first compound 0.316 µM) 85.9% | viability, T/C (second compound 0.3 µM, first compound 1 µM) 83.5% | viability, T/C (second compound 0.3 µM, first compound 3.16 µM) 85.8% | viability, T/C (second compound 0.3 µM, first compound 10 µM) 108% | viability, T/C (second compound 0.3 µM, first compound 31.6 µM) 69.5% | viability, T/C (second compound 0.3 µM, first compound 100 µM) 81.8% | viability, T/C (second compound 0.949 µM, first compound 0.316 µM) 84.4% | viability, T/C (second compound 0.949 µM, first compound 1 µM) 94.1% | viability, T/C (second compound 0.949 µM, first compound 3.16 µM) 90.9% | viability, T/C (second compound 0.949 µM, first compound 10 µM) 107% | viability, T/C (second compound 0.949 µM, first compound 31.6 µM) 53.6% | viability, T/C (second compound 0.949 µM, first compound 100 µM) 87% | viability, T/C (second compound 3 µM, first compound 0.316 µM) 82.9% | viability, T/C (second compound 3 µM, first compound 1 µM) 89.1% | viability, T/C (second compound 3 µM, first compound 3.16 µM) 105% | viability, T/C (second compound 3 µM, first compound 10 µM) 88.5% | viability, T/C (second compound 3 µM, first compound 31.6 µM) 54% | viability, T/C (second compound 3 µM, first compound 100 µM) 50.5% | viability, T/C (second compound 9.49 µM, first compound 0.316 µM) 85.4% | viability, T/C (second compound 9.49 µM, first compound 1 µM) 107% | viability, T/C (second compound 9.49 µM, first compound 3.16 µM) 99.8% | viability, T/C (second compound 9.49 µM, first compound 10 µM) 73.7% | viability, T/C (second compound 9.49 µM, first compound 31.6 µM) 39.9% | viability, T/C (second compound 9.49 µM, first compound 100 µM) 32.4% | viability, T/C (second compound 30 µM, first compound 0.316 µM) 107% | viability, T/C (second compound 30 µM, first compound 1 µM) 119% | viability, T/C (second compound 30 µM, first compound 3.16 µM) 127%
active: viability, T/C (second compound 30 µM, first compound 10 µM) 5.6% | viability, T/C (second compound 30 µM, first compound 31.6 µM) 5.46% | viability, T/C (second compound 30 µM, first compound 100 µM) 13.1%
